Laboratory results as given in patent US20220213082A1, “PRODRUG OF CASPASE INHIBITOR” (LG CHEM, LTD., priority 2019, published 2022).

System: recombinant human carboxylesterases (CE1b, CE1c and CE2)
Assay: Hydrolysis test by hydrolase (recombinant human carboxylesterases)
Format: in vitro ADME
Procedure: Various recombinant human carboxylesterases (CE1b, CE1c and CE2) were prepared in order to confirm the hydrolysis tendency of the prodrug by carboxylesterase (CE) which is a hydrolase. The initial enzyme concentration provided by the manufacturer was 5 mg/mL, which was diluted 1/50 in 100 mM potassium phosphate buffer to obtain a protein solution of 100 μg/mL. For the compound of Example 1—which is a prodrug compound to be tested, 5 mg/mL DMSO stock was used as a working solution, which was diluted 1/100 in acetonitrile to obtain 50 μg/mL concentration solution, and again diluted to a concentration of 1/100 in 100 mM potassium phosphate buffer to obtain a drug solution with a final concentration of 500 ng/mL. […] The samples were deproteinized with acetonitrile containing an internal standard (IS) and centrifuged, and the supernatant was injected into LC-MS/MS for analysis. By correcting the obtained peak area of the prodrug with the peak area of IS, the peak response at the time of collection of each sample was obtained, and the residual ratio (% remaining) compared to the initial value was converted. […]
Such result is analyzed that the compound of Example 1 was hydrolyzed by an esterase present in the reaction system and converted into a compound of Formula 2, which is the parent drug.

**Q.** Which results are given for `CC(=O)O[C@]1(CF)OC(=O)C[C@@H]1NC(=O)[C@]1(C(C)C)CC(c2nccc3ccccc23)=NO1` [Example 1, (2S,3S)-2-(fluoromethyl)-3-((R)-5-isopropyl-3-(isoquinolin-1-yl)-4,5-dihydroisoxazole-5-carboxamido)-5-oxotetrahydrofuran-2-yl acetate]?
**A.** contribution of each human recombinant CE isozyme to hydrolysis into compound of Formula 2 (CE1b, CE1c, CE2 compared): greater by CE1b and CE1c than by CE2; residual ratio (% remaining) of prodrug (spiked with human recombinant CE isozyme, after reaction for 60 minutes, LC-MS/MS): most of the prodrug was lost
